Assay results published in ChEMBL document CHEMBL4219130, “Two new lathyrane-type diterpenoid glycosides with IL-6 production inhibitory activity from the roots of Euphorbia kansui” (Bioorg Med Chem Lett, 2018).
pIC50: −log10 of the molar value. Calls of active or inactive are those of the source. The calls are words filed in the database; no cut-off is given here.

What was measured:
Type in all cases: functional, cell-based
HMC1 [1] = test: Antiinflammatory activity in human HMC1 cells assessed as reduction in PMA/ionophore A23187-induced TNFalpha mRNA expression at 0.8 to 20 uM pretreated for 30 mins followed by PMA/ionophore challenge measured after 24 hrs by real-time PCR analysis
HMC1 [2] = test: Antiinflammatory activity in human HMC1 cells assessed as reduction in PMA/ionophore A23187-induced IL-6 production
HMC1 [3] = test: Antiinflammatory activity in human HMC1 cells assessed as reduction in PMA/ionophore A23187-induced IL-6 mRNA expression at 0.8 to 20 uM pretreated for 30 mins followed by PMA/ionophore challenge measured after 24 hrs by real-time PCR analysis
HMC1 [4] = test: Antiinflammatory activity in human HMC1 cells assessed as reduction in PMA/ionophore A23187-induced IL-1beta mRNA expression at 0.8 to 20 uM pretreated for 30 mins followed by PMA/ionophore challenge measured after 24 hrs by real-time PCR analysis

| pIC50 (HMC1 [2]) | Structure (SMILES) | Activity (HMC1 [1]) | Activity (HMC1 [3]) | Activity (HMC1 [4]) |
| --- | --- | --- | --- | --- |
| 5.53 | C/C1=C\C2=C(C[C@H](C)C2=O)[C@@H](O[C@@H]2O[C@H](CO)[C@@H](O)[C@H](O)[C@H]2O)[C@H](C)C[C@@H]2[C@H](C[C@H]1O)[C@@]2(C)CO | Active | Active | Active |
| 5.71 | C/C1=C\C2=C(C[C@H](C)C2=O)[C@@H](O)[C@H](C)C[C@@H]2[C@H](C[C@H]1O)[C@@]2(C)CO[C@@H]1O[C@H](CO)[C@@H](O)[C@H](O)[C@H]1O |  |  |  |
